Results from patent US6686355B2, “Biphenyl sulfonamides useful as matrix metalloproteinase inhibitors” (Warner-Lambert Company, priority 2001, dated 2004).

What was measured:
Assay type in all cases: biochemical
[1] = target: MMP-3CD (catalytic domain of stromelysin-1) (Homo sapiens, UniProt P08254); assay: Thiopeptolide hydrolysis assay, MMP-3CD; conditions: thiopeptolide substrate, MES pH 6.0
Description: (§1) The assays measure the amount by which a test compound reduces the hydrolysis of a thiopeptolide substrate catalyzed by a matrix metalloproteinase enzyme. Such assays are described in detail by Ye et al., in Biochemistry, 1992;31(45):11231-11235, which is incorporated herein by reference.
(§2) Thiopeptolide substrates show virtually no decomposition or hydrolysis at or below neutral pH in the absence of a matrix metalloproteinase enzyme. A typical thiopeptolide substrate commonly utilized for assays is Ac-Pro-Leu-Gly-thioester-Leu-Leu-Gly-OEt. A 100 μL assay mixture will contain 50 mM of N-2-hydroxyethylpiperazine-N′-2-ethanesulfonic acid buffer (“HEPES”) at pH 7.0, 10 mM CaCl2, 100 μM thiopeptolide substrate, and 1 mM 5,5″-dithio-bis-(2-nitro-benzoic acid) (DTNB). The thiopeptolide substrate concentration may be varied from, for example, 10 to 800 μM to obtain Km and Kcat values. The change in absorbance at 405 nm is monitored on a Thermo Max microplate reader (Molecular Devices, Menlo Park, Calif.) at room temperature (22° C.). The calculation of the amount of hydrolysis of the thiopeptolide substrate is based on E412=13600 M^−1 cm^−1 for the DTNB-derived product 3-carboxy4-nitrothiophenoxide. Assays are carried out with and without matrix metalloproteinase inhibitor compounds, and the amount of hydrolysis is compared for a determination of inhibitory activity of the test compounds.
(§3) Several representative compounds have been evaluated for their ability to inhibit various matrix metalloproteinase enzymes. In Table I, MMP-1FL refers to full length interstitial collagenase; MMP-2FL refers to full length Gelatinase A; MMP-3CD refers to the catalytic domain of stromelysin-1; MMP-7FL refers to full length matrilysin; MMP-9FL refers to full length Gelatinase B; MMP-13CD refers to the catalytic domain of collagenase 3; and MMP-14CD refers to the catalytic domain of MMP-14. Test compounds were evaluated at various concentrations in order to determine their respective IC50 values, the micromolar concentration of compound required to cause a 50% inhibition of the catalytic activity of the respective enzyme.
It should be appreciated that the assay buffer used with MMP-3CD was 50 mM of 2-morpholinoethanesulfonic acid monohydrate (“MES”) at pH 6.0 rather than the HEPES buffer at pH 7.0 described above.

[2] = target: MMP-9FL (full length Gelatinase B) (Homo sapiens, UniProt P14780); assay: Thiopeptolide hydrolysis assay, MMP-9FL; conditions: thiopeptolide substrate, HEPES pH 7.0, 22° C.
MMP-9FL (full length Gelatinase B), sequence (P14780 94-707, species assumed): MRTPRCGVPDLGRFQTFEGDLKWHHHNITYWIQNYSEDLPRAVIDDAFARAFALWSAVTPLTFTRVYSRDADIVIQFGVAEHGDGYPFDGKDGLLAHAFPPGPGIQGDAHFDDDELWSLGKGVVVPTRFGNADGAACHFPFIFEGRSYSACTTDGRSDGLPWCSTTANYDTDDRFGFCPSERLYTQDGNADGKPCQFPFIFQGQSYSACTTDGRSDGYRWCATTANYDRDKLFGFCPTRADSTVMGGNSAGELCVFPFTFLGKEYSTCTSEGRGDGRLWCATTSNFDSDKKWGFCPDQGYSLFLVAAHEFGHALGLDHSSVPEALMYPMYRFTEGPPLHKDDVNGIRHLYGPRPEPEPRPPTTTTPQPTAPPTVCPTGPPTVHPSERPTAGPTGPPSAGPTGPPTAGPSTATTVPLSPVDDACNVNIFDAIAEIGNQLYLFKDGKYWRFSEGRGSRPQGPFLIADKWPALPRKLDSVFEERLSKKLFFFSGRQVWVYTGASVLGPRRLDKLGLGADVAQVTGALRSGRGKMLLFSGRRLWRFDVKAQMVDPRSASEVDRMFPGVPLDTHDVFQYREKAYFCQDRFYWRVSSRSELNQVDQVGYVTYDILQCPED
Description: as §1, §2, §3

[3] = target: MMP-13CD (catalytic domain of collagenase 3) (Homo sapiens, UniProt P45452); assay: Thiopeptolide hydrolysis assay, MMP-13CD; conditions: thiopeptolide substrate, HEPES pH 7.0, 22° C.
Description: as §1, §2, §3

[4] = target: T1, MMP-2FL (full length Gelatinase A) (Homo sapiens, UniProt P08253); assay: Thiopeptolide hydrolysis assay, MMP-2FL; conditions: thiopeptolide substrate, HEPES pH 7.0, 22° C.
T1 sequence (P08253 110-660): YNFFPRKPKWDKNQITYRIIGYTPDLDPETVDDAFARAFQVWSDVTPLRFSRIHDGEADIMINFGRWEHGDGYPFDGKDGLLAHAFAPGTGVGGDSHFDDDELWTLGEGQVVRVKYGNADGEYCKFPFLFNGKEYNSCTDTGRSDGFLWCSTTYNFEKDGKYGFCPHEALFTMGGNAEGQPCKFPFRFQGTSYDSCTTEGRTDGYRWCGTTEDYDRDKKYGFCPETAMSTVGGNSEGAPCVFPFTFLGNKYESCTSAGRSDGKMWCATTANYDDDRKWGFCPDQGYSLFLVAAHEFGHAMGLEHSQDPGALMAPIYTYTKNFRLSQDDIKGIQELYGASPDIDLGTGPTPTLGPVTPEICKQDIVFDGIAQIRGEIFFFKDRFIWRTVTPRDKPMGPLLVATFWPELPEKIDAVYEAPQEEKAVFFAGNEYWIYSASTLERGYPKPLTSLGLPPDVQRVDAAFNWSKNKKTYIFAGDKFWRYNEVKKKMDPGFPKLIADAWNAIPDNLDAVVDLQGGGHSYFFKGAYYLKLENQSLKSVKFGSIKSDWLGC
Description: as §1, §2, §3

MMP-3CD (catalytic domain of stromelysin-1), sequence (P08254 100-272 limits assumed): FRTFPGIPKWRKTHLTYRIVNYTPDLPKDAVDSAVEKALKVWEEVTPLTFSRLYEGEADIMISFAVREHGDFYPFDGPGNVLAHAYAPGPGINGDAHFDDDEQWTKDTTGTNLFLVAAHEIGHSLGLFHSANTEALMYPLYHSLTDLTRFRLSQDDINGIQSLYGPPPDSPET

SMILES | IC50 [1] | IC50 [2] | IC50 [3] | IC50 [4]
Cc1cc(-c2ccc(S(=O)(=O)N3CCSC(C)(C)[C@@H]3C(=O)O)cc2)ccc1F [Example 51, (S)-4-(4′-Fluoro-3′-methyl-biphenyl-4-sulfonyl)-2,2-dimethyl-thiomorpholine-3-carboxylic acid] | 0.01 µM | 1 µM | 0.012 µM | 0.027 µM
CC1(C)SCCN(S(=O)(=O)c2ccc(-c3cccc(F)c3)cc2)[C@H]1C(=O)O [Example 58, (S)-4-(3′-Fluoro-biphenyl-4-sulfonyl)-2,2-dimethyl-thiomorpholine-3-carboxylic acid] | 0.082 µM | 6.3 µM | 0.425 µM | 0.134 µM
Cc1cccc(-c2ccc(S(=O)(=O)N3CCSC(C)(C)[C@@H]3C(=O)O)cc2)c1 [Example 31, (S)-2,2-Dimethyl-4-(3′-methyl-biphenyl-4-sulfonyl)-thiomorpholine-3-carboxylic acid] | > 100 µM | 1.57 µM | > 100 µM | > 100 µM
CC1(C)SCCN(S(=O)(=O)c2ccc(-c3ccc(C=O)cc3)cc2)[C@H]1C(=O)O [Example 30, (S)-4-(4′-Formyl-biphenyl-4-sulfonyl)-2,2-dimethyl-thiomorpholine-3-carboxylic acid] | 0.0154 µM | 3.6 µM | 0.096 µM | 0.042 µM
CC1(C)SCCN(S(=O)(=O)c2ccc(-c3ccc(Cl)s3)cc2)[C@H]1C(=O)O [Example 50, (S)-4-[4-(5-Chloro-thiophen-2-yl)-benzenesulfonyl]-2,2-dimethyl-thiomorpholine-3-carboxylic acid] | 0.019 µM | 1.5 µM | 0.12 µM | 0.024 µM
CC(=O)c1cccc(-c2ccc(S(=O)(=O)N3CCSC(C)(C)[C@@H]3C(=O)O)cc2)c1 [Example 61, (S)-4-(3′-Acetyl-biphenyl-4-sulfonyl)-2,2-dimethyl-thiomorpholine-3-carboxylic acid] | 0.763 µM | 49 µM | 2.9 µM | 3.4 µM
CC1(C)SCCN(S(=O)(=O)c2ccc(-c3cccc([N+](=O)[O-])c3)cc2)[C@H]1C(=O)O [Example 27, (S)-2,2-Dimethyl-4-(3′-nitro-biphenyl-4-sulfonyl)-thiomorpholine-3-carboxylic acid] | > 100 µM | > 100 µM | > 100 µM | > 100 µM
COc1cccc(OC)c1-c1ccc(S(=O)(=O)N2CCSC(C)(C)[C@@H]2C(=O)O)cc1 [Example 60, (S)-4-(2′,6′-Dimethoxy-biphenyl-4-sulfonyl)-2,2-dimethyl-thiomorpholine-3-carboxylic acid] | 9.95 µM |  | 25.5 µM | 39 µM
CC1(C)SCCN(S(=O)(=O)c2ccc(-c3ccc(C(F)(F)F)cc3)cc2)[C@H]1C(=O)O [Example 57, (S)-2,2-Dimethyl-4-(4′-trifluoromethyl-biphenyl-4-sulfonyl)-thiomorpholine-3-carboxylic acid] | 0.0045 µM | 0.54 µM | 0.013 µM | 0.0088 µM
CC(C)(C)c1ccc(-c2ccc(S(=O)(=O)N3CCSC(C)(C)[C@@H]3C(=O)O)cc2)cc1 [Example 49, (S)-4-(4′-tert-Butyl-biphenyl-4-sulfonyl)-2,2-dimethyl-thiomorpholine-3-carboxylic acid] | 0.039 µM | 1.5 µM | 0.061 µM | 0.23 µM
CC1(C)SCCN(S(=O)(=O)c2ccc(-c3cccc(OC(F)(F)F)c3)cc2)[C@H]1C(=O)O [Example 59, (S)-2,2-Dimethyl-4-(3′-trifluoromethoxy-biphenyl-4-sulfonyl)-thiomorpholine-3-carboxylic acid] | 1.1 µM | 30 µM | 5.3 µM | 5.2 µM
CC1(C)SCCN(S(=O)(=O)c2ccc(-c3ccc(Cl)cc3Cl)cc2)[C@H]1C(=O)O [Example 56, (S)-4-(2′,4′-Dichloro-biphenyl-4-sulfonyl)-2,2-dimethyl-thiomorpholine-3-carboxylic acid] | 1.5 µM | 18 µM | 1.1 µM | 0.81 µM
CC1(C)SCCN(S(=O)(=O)c2ccc(-c3ccccc3C=O)cc2)[C@H]1C(=O)O [Example 63, (S)-4-(2′-Formyl-biphenyl-4-sulfonyl)-2,2-dimethyl-thiomorpholine-3-carboxylic acid] | 21 µM |  | 62.5 µM | 68 µM
CC1(C)SCCN(S(=O)(=O)c2ccc(-c3ccc(F)c(Cl)c3)cc2)[C@H]1C(=O)O [Example 42, (S)-4-(3′-Chloro-4′-fluoro-biphenyl-4-sulfonyl)-2,2-dimethyl-thiomorpholine-3-carboxylic acid] | 0.0289 µM | 9.15 µM | 0.113 µM | 0.16 µM
CC1(C)SCCN(S(=O)(=O)c2ccc(-c3ccc(F)cc3)cc2)[C@H]1C(=O)O [Example 32, (S)-4-(4′-Fluoro-biphenyl-4-sulfonyl)-2,2-dimethyl-thiomorpholine-3-carboxylic acid] | 0.0365 µM | 4.43 µM | 0.145 µM | 0.133 µM
CC1(C)SCCN(S(=O)(=O)c2ccc(-c3cccc4ccccc34)cc2)[C@H]1C(=O)O [Example 28, (S)-2,2-Dimethyl-4-(4-naphthalen-1-yl-benzenesulfonyl)-thiomorpholine-3-carboxylic acid] | 2.2 µM | 22.8 µM | 2.67 µM | 2.07 µM
CC1(C)SCCN(S(=O)(=O)c2ccc(-c3cccc(C=O)c3)cc2)[C@H]1C(=O)O [Example 35, (S)-4-(3′-Formyl-biphenyl-4-sulfonyl)-2,2-dimethyl-thiomorpholine-3-carboxylic acid] | 0.0154 µM | 0.479 µM | 0.021 µM | 0.035 µM
Cc1ccc(-c2ccc(S(=O)(=O)N3CCSC(C)(C)[C@@H]3C(=O)O)cc2)s1 [Example 52, (S)-2,2-Dimethyl-4-[4-(5-methyl-thiophen-2-yl)-benzenesulfonyl]-thiomorpholine-3-carboxylic acid] | 0.014 µM | 0.52 µM | 0.036 µM | 0.013 µM
CC1(C)SCCN(S(=O)(=O)c2ccc(-c3cccc(Cl)c3)cc2)[C@H]1C(=O)O [Example 34, (S)-4-(3′-Chloro-biphenyl-4-sulfonyl)-2,2-dimethyl-thiomorpholine-3-carboxylic acid] | 0.0703 µM | 10.3 µM | 0.243 µM | 0.187 µM
CC1(C)SCCN(S(=O)(=O)c2ccc(-c3ccc(Cl)cc3)cc2)[C@H]1C(=O)O [Example 29, (S)-4-(4′-Chloro-biphenyl-4-sulfonyl)-2,2-dimethyl-thiomorpholine-3-carboxylic acid] | > 100 µM | > 100 µM | > 100 µM | > 100 µM
COc1cc(-c2ccc(S(=O)(=O)N3CCSC(C)(C)[C@@H]3C(=O)O)cc2)cc(OC)c1OC [Example 55, (S)-2,2-Dimethyl-4-(3′,4′,5′-trimethoxy-biphenyl-4-sulfonyl)-thiomorpholine-3-carboxylic acid] | 8.9 µM | 59 µM | 7.7 µM | 8.8 µM
CC1(C)SCCN(S(=O)(=O)c2ccc(-c3cccc(C#N)c3)cc2)[C@H]1C(=O)O [Example 62, (S)-4-(3′-Cyano-biphenyl-4-sulfonyl)-2,2-dimethyl-thiomorpholine-3-carboxylic acid] | 0.83 µM |  | 4.9 µM | 6.2 µM
